pKi: −log10 of the molar value.
Biological target: T1, hMCHR (Homo sapiens, UniProt Q99705)
T1 construct: host or cells: CHO (Chinese hamster ovary) cells, membranes
Assay: MCH Assay PCOP Protocol: [125I]-MCH binding to hMCHR-CHO membranes, WGA-SPA beads
Details: hMCHR-CHO overexpressing membranes, 0.5 nM [125I]-MCH, 2 hours incubation
Description: A reaction mixture of 10 μg hMCHR-CHO overexpressing membranes (from Receptor Biology, Inc., Beltville, Md., or internally produced) and 100 μg/well WGA-SPA beads (from Amersham Pharmacia Biotech, Inc., Piscataway, N.J.)/100 μL was prepared in MCHR assay buffer (25 mM HEPES, pH 7.4, 10 mM NaCl, 10 mM MgCl2, 5 mM MnCl2, 0.1%BSA). […] The assay plates were shaken for 5 minutes on a plate shaker, then incubated for 2 hours before cpm/well were determined in a Microbeta Trilux counter (from Perkin Elmer Wallac, Inc., Gaithersburg, Md.).

T1 sequence (Q99705 whole entry): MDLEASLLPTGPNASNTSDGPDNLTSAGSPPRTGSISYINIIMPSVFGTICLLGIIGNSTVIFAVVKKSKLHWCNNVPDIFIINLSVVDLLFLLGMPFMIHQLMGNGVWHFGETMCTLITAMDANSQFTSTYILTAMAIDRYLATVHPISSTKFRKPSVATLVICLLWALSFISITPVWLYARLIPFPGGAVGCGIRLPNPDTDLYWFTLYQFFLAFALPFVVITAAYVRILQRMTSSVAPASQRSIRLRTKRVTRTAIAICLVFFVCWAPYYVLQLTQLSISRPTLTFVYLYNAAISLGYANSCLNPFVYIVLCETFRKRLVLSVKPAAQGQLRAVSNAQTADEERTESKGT

| Structure (SMILES) | pKi |
| --- | --- |
| CN1CCC2(CC1)CN(C(=O)Nc1cc(Cl)cc(Cl)c1)c1ccc(-c3cccc(C#N)c3)cc12 [Example 37] | 7.00 to 7.96 |
| CN1CCC(CN(C)C(=O)Nc2cc(Cl)cc(Cl)c2)(c2ccc(-c3cccc(C#N)c3)cc2)CC1 [Example 38] | 8.00 to 9.70 |
| CN1CCC(CNC(=O)Nc2cc(Cl)cc(Cl)c2)(c2ccc(-c3cc4ccccc4o3)cc2)CC1 [Example 40] | 5.26 to 7.00 |
| CN1CCC(CNC(=O)Nc2cc(Cl)cc(Cl)c2)(c2ccc(-c3cccc(N)c3)cc2)CC1 [Example 41] | 7.00 to 7.96 |
| CN1CCC(CNC(=O)Nc2cc(Cl)cc(Cl)c2)(c2ccc(-c3ccc4c(c3)OCO4)cc2)CC1 [Example 43] | 8.00 to 9.70 |
| COc1ccc(-c2ccc(C3(CNC(=O)Nc4cc(Cl)cc(Cl)c4)CCN(C)CC3)cc2)cn1 [Example 44] | 7.00 to 7.96 |
| CCCN1CCC2(CC1)CN(C(=O)Nc1ccc(Cl)c(Cl)c1)c1ccc(-c3cccc(C#N)c3)cc12 [Example 45] | 5.26 to 7.00 |
| CCCN1CCC2(CC1)CN(C(=O)Nc1ccc(F)c(Cl)c1)c1ccc(-c3cccc(C#N)c3)cc12 [Example 46] | 5.26 to 7.00 |
| CCCN1CCC(CNC(=O)Nc2ccc(Cl)cc2C(F)(F)F)(c2ccc(-c3cccc(C#N)c3)cc2)CC1 [Example 47] | 7.00 to 7.96 |
| O=C(NCC1(c2ccc(-c3cccc(Cl)c3)cc2)CCN(CC2CC2)CC1)Nc1ccc(Cl)cc1C(F)(F)F [Example 48] | 5.26 to 7.00 |
| O=C(NCC1(c2ccc(-c3cccc(Cl)c3)cc2)CCN(CC2CC2)CC1)Nc1ccc(F)c(Cl)c1 [Example 49] | 8.00 to 9.70 |
| N#Cc1cccc(-c2ccc(C3(CNC(=O)Nc4ccc(Cl)c(C(F)(F)F)c4)CCN(CC4CC4)CC3)cc2)c1 [Example 50] | 8.00 to 9.70 |
| CN1CCC(CNC(=O)Nc2ccc(Cl)c(C(F)(F)F)c2)(c2ccc(-c3cccc(Cl)c3)cc2)CC1 [Example 51] | 8.00 to 9.70 |
| CCCN1CCC(CNC(=O)Nc2ccc(Cl)cc2C(F)(F)F)(c2ccc(-c3cccc(Cl)c3)cc2)CC1 [Example 52] | 5.26 to 7.00 |
| CN1CCC(CNC(=O)Nc2cc(F)cc(F)c2)(c2ccc(-c3cccc(Cl)c3)cc2)CC1 [Example 55] | 8.00 to 9.70 |
| CN1CCC(CNC(=O)Nc2cc(C(F)(F)F)ccc2Cl)(c2ccc(-c3cccc(Cl)c3)cc2)CC1 [Example 57] | 7.00 to 7.96 |
| CCCN1CCC(CNC(=O)Nc2cc(C(F)(F)F)ccc2Cl)(c2ccc(-c3cccc(Cl)c3)cc2)CC1 [Example 58] | 5.26 to 7.00 |
| CN1CCC(CNC(=O)Nc2ccc(Cl)cc2C(F)(F)F)(c2ccc(-c3cccc(Cl)c3)cc2)CC1 [Example 59] | 5.26 to 7.00 |
| N#Cc1cccc(-c2ccc(C3(CNC(=O)Nc4ccc(Cl)cc4C(F)(F)F)CCN(CC4CC4)CC3)cc2)c1 [Example 60] | 5.26 to 7.00 |
| O=C(NCC1(c2ccc(-c3cccc(Cl)c3)cc2)CCN(CC2CC2)CC1)Nc1ccc(Cl)c(C(F)(F)F)c1 [Example 61] | 7.00 to 7.96 |
| CN1CCC(CNC(=O)Nc2ccccc2)(c2ccc(-c3cccc(Cl)c3)cc2)CC1 [Example 62] | 8.00 to 9.70 |
| CCCN1CCC(CNC(=O)Nc2cc(C(F)(F)F)ccc2Cl)(c2ccc(-c3cccc(C#N)c3)cc2)CC1 [Example 63] | 7.00 to 7.96 |
| CCCN1CCC(CNC(=O)Nc2ccc(Cl)c(C(F)(F)F)c2)(c2ccc(-c3cccc(Cl)c3)cc2)CC1 [Example 64] | 7.00 to 7.96 |

| Structure (SMILES) | pKi |
| --- | --- |
| CCCN1CCC(CNC(=O)Nc2ccc(F)c(Cl)c2)(c2ccc(-c3cccc(C#N)c3)cc2)CC1 [Example 65] | 8.00 to 9.70 |
| CN1CCC(CNC(=O)Nc2ccc(Cl)cc2C(F)(F)F)(c2ccc(-c3cccc(C#N)c3)cc2)CC1 [Example 67] | 5.26 to 7.00 |
| N#Cc1cccc(-c2ccc(C3(CNC(=O)Nc4cc(C(F)(F)F)ccc4Cl)CCN(CC4CC4)CC3)cc2)c1 [Example 68] | 7.00 to 7.96 |
| CN1CCC(CNC(=O)Nc2cc(C(F)(F)F)ccc2Cl)(c2ccc(-c3cccc(C#N)c3)cc2)CC1 [Example 69] | 7.00 to 7.96 |
| O=C(NCC1(c2ccc(-c3cccc(Cl)c3)cc2)CCN(CC2CC2)CC1)Nc1cc(Cl)cc(Cl)c1 [Example 70] | 8.00 to 9.70 |
| CCCN1CCC(CNC(=O)Nc2ccc(Cl)c(C(F)(F)F)c2)(c2ccc(-c3cccc(C#N)c3)cc2)CC1 [Example 71] | 8.00 to 9.70 |
| CN1CCC(CNC(=O)c2cc(Cl)cc(Cl)c2)(c2ccc(-c3cccc(Cl)c3)cc2)CC1 [Example 72] | 5.26 to 7.00 |
| O=C(NCC1(c2ccc(-c3cccc(Cl)c3)cc2)CCN(CC2CC2)CC1)Nc1cc(C(F)(F)F)ccc1Cl [Example 73] | 5.26 to 7.00 |
| CCCN1CCC(CNC(=O)Nc2cc(Cl)cc(Cl)c2)(c2ccc(-c3cccc(Cl)c3)cc2)CC1 [Example 74] | 8.00 to 9.70 |
| CN1CCC2(CC1)CN(C(=O)Nc1ccc(F)c(Cl)c1)c1cccc(-c3cccc(C#N)c3)c12 [Example 75] | 5.26 to 7.00 |
| O=C(NCC1(c2ccc(-c3cccc(Cl)c3)cc2)CCN(C2CCCC2)CC1)Nc1cc(Cl)cc(Cl)c1 [Example 77] | 8.00 to 9.70 |
| CN1CCC(CNC(=O)Nc2cc(Cl)cc(Cl)c2)(c2ccc(-c3ccc4[nH]ccc4c3)cc2)CC1 [Example 78] | 5.26 to 7.00 |
| CC(=O)Nc1cccc(-c2ccc(C3(CNC(=O)Nc4cc(Cl)cc(Cl)c4)CCN(C(C)C)CC3)cc2)c1 [Example 79] | 8.00 to 9.70 |
| CC(=O)c1cccc(-c2ccc(C3(CNC(=O)Nc4cc(Cl)cc(Cl)c4)CCN(C(C)C)CC3)cc2)c1 [Example 80] | 7.00 to 7.96 |
| O=C(NCC1(c2ccc(-c3ccc4c(c3)OCO4)cc2)CCN(C2CCCC2)CC1)Nc1cc(Cl)cc(Cl)c1 [Example 81] | 8.00 to 9.70 |
| CC(C)N1CCC(CNC(=O)Nc2cc(Cl)cc(Cl)c2)(c2ccc(-c3ccc4c(c3)OCO4)cc2)CC1 [Example 82] | 8.00 to 9.70 |
| CC(C)N1CCC(CNC(=O)Nc2cc(Cl)cc(Cl)c2)(c2ccc(-c3cccc(Cl)c3)cc2)CC1 [Example 83] | 8.00 to 9.70 |
| COCCN1CCC2(CC1)CN(C(=O)Nc1ccc(F)c(Cl)c1)c1ccc(-c3cccc(C#N)c3)cc12 [Example 86] | 5.26 to 7.00 |
| CN1CCC(CNC(=O)Cc2ccc(Cl)c(Cl)c2)(c2ccc(-c3cccc(C#N)c3)cc2)CC1 [Example 87] | 7.00 to 7.96 |
| COCCN1CCC(CN(C)C(=O)Nc2cc(Cl)cc(Cl)c2)(c2ccc(-c3cccc(C#N)c3)cc2)CC1 [Example 88] | 8.00 to 9.70 |
| COCCN1CCC(CNC(=O)Nc2cc(F)cc(C(F)(F)F)c2)(c2ccc(-c3cccc(C#N)c3)cc2)CC1 [Example 89] | 8.00 to 9.70 |
| COCCN1CCC(CNC(=O)Nc2ccc(F)c(Cl)c2)(c2ccc(-c3cccc(C#N)c3)cc2)CC1 [Example 90] | 8.00 to 9.70 |
| COCCN1CCC(CNC(=O)Nc2ccc(F)c(F)c2)(c2ccc(-c3cccc(C#N)c3)cc2)CC1 [Example 91] | 8.00 to 9.70 |

| Structure (SMILES) | pKi |
| --- | --- |
| COCCN1CCC(CNC(=O)Nc2ccc3c(c2)OCO3)(c2ccc(-c3cccc(C#N)c3)cc2)CC1 [Example 92] | 8.00 to 9.70 |
| COCCN1CCC(CNC(=O)Nc2cc(Cl)cc(Cl)c2)(c2ccc(-c3cccc(CO)c3)cc2)CC1 [Example 93] | 8.00 to 9.70 |
| COCCN1CCC(CNC(=O)Nc2ccc(Cl)c(C(F)(F)F)c2)(c2ccc(-c3cccc(C#N)c3)cc2)CC1 [Example 94] | 8.00 to 9.70 |
| COCCN1CCC(CNC(=O)Nc2ccc(OC)c(Cl)c2)(c2ccc(-c3cccc(C#N)c3)cc2)CC1 [Example 95] | 7.00 to 7.96 |
| N#Cc1cccc(-c2ccc(C3(CNC(=O)Nc4cc(F)cc(F)c4)CCN(CC4CC4)CC3)cc2)c1 [Example 96] | 8.00 to 9.70 |
| CN(CC1(c2ccc(-c3cccc(C#N)c3)cc2)CCN(CC2CC2)CC1)C(=O)Nc1cc(F)cc(F)c1 [Example 97] | 7.00 to 7.96 |
| N#Cc1cccc(-c2ccc(C3(CNC(=O)Nc4ccc5c(c4)OCO5)CCN(CC4CC4)CC3)cc2)c1 [Example 98] | 7.00 to 7.96 |
| CN(CC1(c2ccc(-c3cccc(C#N)c3)cc2)CCN(CC2CC2)CC1)C(=O)Nc1ccc(F)c(Cl)c1 [Example 99] | 7.00 to 7.96 |
| N#Cc1cccc(-c2ccc(C3(CNC(=O)Nc4ccc(F)c(C(F)(F)F)c4)CCN(CC4CC4)CC3)cc2)c1 [Example 100] | 8.00 to 9.70 |
| CCCN1CCC(CNC(=O)Nc2ccc3c(c2)OCO3)(c2ccc(-c3cccc(C#N)c3)cc2)CC1 [Example 101] | 7.00 to 7.96 |
| CCCN1CCC(CNC(=O)Nc2cc(F)cc(F)c2)(c2ccc(-c3cccc(C#N)c3)cc2)CC1 [Example 102] | 8.00 to 9.70 |
| CCCN1CCC(CNC(=O)Nc2ccc(F)c(C(F)(F)F)c2)(c2ccc(-c3cccc(C#N)c3)cc2)CC1 [Example 103] | 8.00 to 9.70 |
| CN(CC1(c2ccc(-c3cccc(C#N)c3)cc2)CCN(CC2CC2)CC1)C(=O)Nc1ccc(Cl)c(C(F)(F)F)c1 [Example 104] | 7.00 to 7.96 |
| COCCN1CCC(CNC(=O)Nc2cc(F)cc(F)c2)(c2ccc(-c3cccc(C#N)c3)cc2)CC1 [Example 105] | 8.00 to 9.70 |
| O=C(NCC1(c2ccc(-c3cccc(Cl)c3)cc2)CCN(C2CCC2)CC1)Nc1cc(Cl)cc(Cl)c1 [Example 107] | 5.26 to 7.00 |
| N#Cc1cccc(-c2ccc(C3(CNC(=O)Nc4cc(Cl)cc(Cl)c4)CCN(C4CCOCC4)CC3)cc2)c1 [Example 109] | 8.00 to 9.70 |
| CC(=O)Nc1cccc(-c2ccc(C3(CNC(=O)Nc4cc(Cl)cc(Cl)c4)CCN(C4CCOCC4)CC3)cc2)c1 [Example 110] | 7.00 to 7.96 |
| CC(C)CN1CCC(CNC(=O)Nc2cc(Cl)cc(Cl)c2)(c2ccc(-c3cccc(Cl)c3)cc2)CC1 [Example 112] | 7.00 to 7.96 |
| CCCCN1CCC(CNC(=O)Nc2cc(Cl)cc(Cl)c2)(c2ccc(-c3cccc(Cl)c3)cc2)CC1 [Example 113] | 7.00 to 7.96 |
| O=C(NCC1(c2ccc(-c3cccc(Cl)c3)cc2)CCN(C2CCOCC2)CC1)Nc1cc(Cl)cc(Cl)c1 [Example 114] | 5.26 to 7.00 |
| N#Cc1cccc(-c2ccc(C3(CNC(=O)Nc4ccc(F)c(Cl)c4)CCN(CCC(F)(F)F)CC3)cc2)c1 [Example 117] | 8.00 to 9.70 |
| N#Cc1cccc(-c2ccc(C3(CNC(=O)Nc4cc(Cl)cc(Cl)c4)CCN(CCC(F)(F)F)CC3)cc2)c1 [Example 118] | 8.00 to 9.70 |
